This is an account of results in ChEMBL document CHEMBL5724914, “Linking interpersonal differences in gut microbiota composition and drug biotransformation activity” (2024).

Data set [1] can be described thus: The drug is tested on WLS-010 corresponding to human gut metagenome with ENA study accession number: PRJEB37062 and ENA sample accession number: ERS12561743 for biotransformation under anaerobic condition. The drug concentrations were measured over 9 timepoints collected between 0 and 24 hours of incubation by liquid-chromatography-coupled mass spectrometry (LC–MS). Conditions: 2 µM.

For data set [2] the following is noted: human gut metagenome, 24 h, 2 µM.
Data set [3] in a line: The drug is tested on Z-005 corresponding to metagenome with ENA study accession number: PRJEB37062 and ENA sample accession number: ERS12561805 for biotransformation under anaerobic condition. The drug concentrations were measured over 9 timepoints collected between 0 and 24 hours of incubation by liquid-chromatography-coupled mass spectrometry (LC–MS). Conditions: 2 µM.

The conditions of data set [4]: human gut metagenome, 24 h, 2 µM. This is another data set of the same source.
The nature of data set [5]: The drug is tested on WLS-038 corresponding to human gut metagenome with ENA study accession number: PRJEB37062 and ENA sample accession number: ERS12561745 for biotransformation under anaerobic condition. The drug concentrations were measured over 9 timepoints collected between 0 and 24 hours of incubation by liquid-chromatography-coupled mass spectrometry (LC–MS). Conditions: 2 µM.

For data set [6] the following is noted: human gut metagenome, 24 h, 2 µM. This is another data set of the same source.
The conditions of data set [7]: human gut metagenome, 24 h, 2 µM. This is another data set of the same source.
For data set [8] the following is noted: human gut metagenome, 24 h, 2 µM. The source holds these as a separate data set.
The conditions of data set [9]: human gut metagenome, 24 h, 2 µM. The source holds these as a separate data set.
For data set [10] the following is noted: human gut metagenome, 24 h, 2 µM. This is another data set of the same source.
A short description of data set [11]: The drug is tested on WLS-039 corresponding to human gut metagenome with ENA study accession number: PRJEB37062 and ENA sample accession number: ERS12561746 for biotransformation under anaerobic condition. The drug concentrations were measured over 9 timepoints collected between 0 and 24 hours of incubation by liquid-chromatography-coupled mass spectrometry (LC–MS). Conditions: 2 µM.

Data set [12] in a line: The drug is tested on Z-022 corresponding to mouse gut metagenome with ENA study accession number: PRJEB37062 and ENA sample accession number: ERS12561821 for biotransformation under anaerobic condition. The drug concentrations were measured over 9 timepoints collected between 0 and 24 hours of incubation by liquid-chromatography-coupled mass spectrometry (LC–MS). The conditions noted are these: 2 µM.

The nature of data set [13]: The drug is tested on WLS-069 corresponding to human gut metagenome with ENA study accession number: PRJEB37062 and ENA sample accession number: ERS12561748 for biotransformation under anaerobic condition. The drug concentrations were measured over 9 timepoints collected between 0 and 24 hours of incubation by liquid-chromatography-coupled mass spectrometry (LC–MS). The conditions noted are these: 2 µM.

The conditions of data set [14]: human gut metagenome, 24 h, 2 µM. This is another data set of the same source.
Data set [15] in a line: The drug is tested on WLS-310 corresponding to human gut metagenome with ENA study accession number: PRJEB37062 and ENA sample accession number: ERS12561785 for biotransformation under anaerobic condition. The drug concentrations were measured over 9 timepoints collected between 0 and 24 hours of incubation by liquid-chromatography-coupled mass spectrometry (LC–MS). The conditions noted are these: 2 µM.

The conditions of data set [16]: human gut metagenome, 24 h, 2 µM. The source holds these as a separate data set.
A short description of data set [17]: The drug is tested on WLS-350 corresponding to human gut metagenome with ENA study accession number: PRJEB37062 and ENA sample accession number: ERS12561789 for biotransformation under anaerobic condition. The drug concentrations were measured over 9 timepoints collected between 0 and 24 hours of incubation by liquid-chromatography-coupled mass spectrometry (LC–MS). The conditions noted are these: 2 µM.

The nature of data set [18]: The drug is tested on WLS-370 corresponding to human gut metagenome with ENA study accession number: PRJEB37062 and ENA sample accession number: ERS12561793 for biotransformation under anaerobic condition. The drug concentrations were measured over 9 timepoints collected between 0 and 24 hours of incubation by liquid-chromatography-coupled mass spectrometry (LC–MS). Conditions: 2 µM.

The conditions of data set [19]: human gut metagenome, 24 h, 2 µM. The source holds these as a separate data set.
For data set [20] the following is noted: human gut metagenome, 24 h, 2 µM. The source holds these as a separate data set.
Also: call rule not given here.

As for `CCc1nc(N)nc(N)c1-c1ccc(Cl)cc1` [PYRIMETHAMINE], the “Bacterial Biotransformation” value in data set [1], in data set [2], in data set [3], in [4], in [5] and in data set [6] was “Compound NOT metabolized” each time. Moreover, the “Bacterial Biotransformation” value in [7] is given as “Compound NOT metabolized”; in data set [8], “Compound metabolized”; in data set [9], “Compound NOT metabolized”; in data set [10], “Compound NOT metabolized”; in data set [11], “Compound NOT metabolized”; in data set [12], “Compound metabolized”. In addition, the “Bacterial Biotransformation” value in data set [13], in data set [14], in [15], in data set [16], in data set [17] and in data set [18] was “Compound NOT metabolized” each time. Besides, the “Bacterial Biotransformation” value is “Compound metabolized” in data set [19] and “Compound NOT metabolized” in data set [20].
Take `COc1ccccc1OCC(O)CN1CCN(CC(=O)Nc2c(C)cccc2C)CC1` (stereo not given) [RANOLAZINE]: the “Bacterial Biotransformation” value in data set [1], in data set [2], in data set [3], in data set [4], in data set [5] and in data set [6] was “Compound NOT metabolized” throughout. Also, the “Bacterial Biotransformation” value in data set [7] is given as “Compound NOT metabolized”; in data set [8], “Compound NOT metabolized”; in data set [9] it was “Compound NOT metabolized”; in [10], “Compound NOT metabolized”; in [11] it was “Compound NOT metabolized”; in data set [12] it was “Compound metabolized”. The “Bacterial Biotransformation” value in data set [13], in data set [14], in [15], in [16], in data set [17] and in data set [18] was “Compound NOT metabolized” each time. Also, the “Bacterial Biotransformation” value in data set [19] and in data set [20] was “Compound NOT metabolized” in each case.
With `CN(C)CCc1c[nH]c2ccc(Cn3cncn3)cc12.O=C(O)c1ccccc1` [RIZATRIPTAN BENZOATE], the “Bacterial Biotransformation” value in data set [1], in data set [2], in data set [3], in [4], in [5] and in data set [6] was “Compound NOT metabolized” in each case. Also, the “Bacterial Biotransformation” value in data set [7], in data set [8], in data set [9], in data set [10], in data set [11] and in data set [12] was “Compound NOT metabolized” throughout. Also, the “Bacterial Biotransformation” value in [13], in [14], in data set [15], in [16], in [17] and in [18] was “Compound NOT metabolized” throughout. In addition, the “Bacterial Biotransformation” value in [19] and in [20] was “Compound NOT metabolized” in each case.
`CCCc1nn(C)c2c(=O)[nH]c(-c3cc(S(=O)(=O)N4CCN(C)CC4)ccc3OCC)nc12.O=C(O)CC(O)(CC(=O)O)C(=O)O` [SILDENAFIL CITRATE]: the “Bacterial Biotransformation” value in [1] is reported as “Compound NOT metabolized”; in data set [2], “Compound metabolized”; in [3], “Compound NOT metabolized”; in data set [4], “Compound NOT metabolized”; in data set [5], “Compound NOT metabolized”; in data set [6] it was “Compound metabolized”. Also, the “Bacterial Biotransformation” value in data set [7] is on record as “Compound NOT metabolized”; in [8] it was “Compound metabolized”; in [9], “Compound NOT metabolized”; in data set [10], “Compound NOT metabolized”; in [11], “Compound NOT metabolized”; in data set [12] it was “Compound metabolized”. The “Bacterial Biotransformation” value was “Compound NOT metabolized” in data set [13]; “Compound NOT metabolized” in data set [14]; “Compound metabolized” in data set [15]; “Compound NOT metabolized” in [16]; “Compound NOT metabolized” in [17]; “Compound NOT metabolized” in data set [18]. In addition, the “Bacterial Biotransformation” value in [19] and in [20] was “Compound NOT metabolized” each time.
Turning to `CN1C(C(=O)Nc2ccccn2)=C(O)c2sccc2S1(=O)=O` [TENOXICAM], the “Bacterial Biotransformation” value in [1], in data set [2], in [3], in data set [4], in data set [5] and in data set [6] was “Compound NOT metabolized” in each case. Further, the “Bacterial Biotransformation” value in [7] is reported as “Compound NOT metabolized”; in [8], “Compound NOT metabolized”; in [9], “Compound NOT metabolized”; in data set [10] it was “Compound metabolized”; in data set [11], “Compound NOT metabolized”; in data set [12], “Compound metabolized”. Also, the “Bacterial Biotransformation” value in data set [13] was “Compound NOT metabolized”; in data set [14] it was “Compound NOT metabolized”; in [15] it was “Compound NOT metabolized”; in data set [16] it was “Compound NOT metabolized”; in [17] it was “Compound metabolized”; in data set [18], “Compound NOT metabolized”. Besides, the “Bacterial Biotransformation” value in data set [19] and in [20] was “Compound NOT metabolized” in each case.
In the case of `O=c1n(CCCN2CCN(c3cccc(Cl)c3)CC2)nc2ccccn12` [TRAZODONE], the “Bacterial Biotransformation” value in data set [1], in data set [2], in [3], in data set [4], in [5] and in [6] was “Compound NOT metabolized” throughout. Also, the “Bacterial Biotransformation” value in data set [7] is recorded as “Compound metabolized”; in data set [8] it was “Compound metabolized”; in data set [9], “Compound NOT metabolized”; in data set [10] it was “Compound metabolized”; in [11] it was “Compound NOT metabolized”; in data set [12] it was “Compound metabolized”. Also, the “Bacterial Biotransformation” value is given as “Compound metabolized” in data set [13]; “Compound NOT metabolized” in data set [14]; “Compound NOT metabolized” in data set [15]; “Compound NOT metabolized” in [16]; “Compound metabolized” in [17]; “Compound metabolized” in data set [18]. Further, the “Bacterial Biotransformation” value is listed as “Compound metabolized” in data set [19] and “Compound NOT metabolized” in [20].
